Experimental data as given in ChEMBL document CHEMBL5370543, “Discovery of 6-aryl-2-(3,4,5-trimethoxyphenyl)thiazole[3,2-b][1,2,4]triazoles as potent tubulin polymerization inhibitors” (Eur J Med Chem, 2023).
The source made the active and inactive calls. No cut-off for these calls is given here.

Tests used:
SGC-7901 [1] = test: Antiproliferative activity against human SGC-7901 cells assessed as cell growth inhibition incubated for 72 hrs by MTT assay; assay type: functional, cell-based; conditions: SGC-7901, 72 h
MCF7 = test: Antiproliferative activity against human MCF7 cells assessed as cell growth inhibition incubated for 72 hrs by MTT assay; assay type: functional, cell-based; conditions: MCF7, 72 h
HT-1080 = test: Antiproliferative activity against human HT-1080 cells assessed as cell growth inhibition incubated for 72 hrs by MTT assay; assay type: functional, cell-based; conditions: HT-1080, 72 h
[2] = Cytotoxicity against HUVEC cells assessed as cell growth inhibition incubated for 72 hrs by MTT assay; assay type: toxicity, cell-based; conditions: human
[3] = Selectivity index, ratio of IC50 for HUVEC cells to IC50 for human SGC-7901 cells; assay type: functional
Tubulin (Homo sapiens) [4] = target: T1, Tubulin (Homo sapiens) (UniProt P68371+Q9H4B7+P0DPH7+P68366+Q13509+Q71U36+P04350+Q3ZCM7+P07437+P68363+Q9BQE3+Q6PEY2+Q13885+Q9BVA1+Q9BUF5); test: (§1) Inhibition of tubulin polymerization (unknown origin) by fluorescence based assay; assay type: protein-complex assay
Tubulin = test: as §1; assay type: protein-complex assay, Homo sapiens
Tubulin (Homo sapiens) [5] = target: T1, Tubulin (Homo sapiens); test: Binding affinity to tubulin (unknown origin) at colchicine binding site assessed as tubulin-colchicine complex competition rate at 1.25 uM preincubated for 45 mins followed by colchicine addition by fluorescence based assay relative to control; assay type: protein-complex assay
Tubulin (Homo sapiens) [6] = target: T1, Tubulin (Homo sapiens); test: Disruption of microtubule organization in human SGC-7901 cells assessed as shrinkage of microtubule network around nucleus at 2 times IC50 incubated for 12 hrs by […] based analysis; assay type: cell-based
SGC-7901 [7] = test: Induction of cell cycle arrest in human SGC-7901 cells assessed as accumulation at sub-G1 phase at 2 times IC50 incubated for 6 hrs by PI/RNase staining based flow cytometry (reference value: 2 %); assay type: functional
SGC-7901 [8] = test: Induction of cell cycle arrest in human SGC-7901 cells assessed as accumulation at sub-G1 phase at 2 times IC50 incubated for 12 hrs by PI/RNase staining based flow cytometry (reference value: 2 %); assay type: functional
SGC-7901 [9] = test: Induction of cell cycle arrest in human SGC-7901 cells assessed as accumulation at sub-G1 phase at 2 times IC50 incubated for 24 hrs by PI/RNase staining based flow cytometry (reference value: 2 %); assay type: functional
SGC-7901 [10] = test: Induction of cell cycle arrest in human SGC-7901 cells assessed as accumulation at sub-G1 phase at 2 times IC50 incubated for 48 hrs by PI/RNase staining based flow cytometry (reference value: 2 %); assay type: functional
SGC-7901 [11] = test: Induction of cell cycle arrest in human SGC-7901 cells assessed as accumulation at sub-G1 phase at 2 times IC50 incubated for 72 hrs by PI/RNase staining based flow cytometry (reference value: 2 %); assay type: functional
SGC-7901 [12] = test: Induction of cell cycle arrest in human SGC-7901 cells assessed as accumulation at G0/G1 phase at 2 times IC50 incubated for 6 hrs by PI/RNase staining based flow cytometry (reference value: 42 %); assay type: functional
SGC-7901 [13] = test: Induction of cell cycle arrest in human SGC-7901 cells assessed as accumulation at G0/G1 phase at 2 times IC50 incubated for 12 hrs by PI/RNase staining based flow cytometry (reference value: 42 %); assay type: functional
SGC-7901 [14] = test: Induction of cell cycle arrest in human SGC-7901 cells assessed as accumulation at G0/G1 phase at 2 times IC50 incubated for 24 hrs by PI/RNase staining based flow cytometry (reference value: 42 %); assay type: functional
SGC-7901 [15] = test: Induction of cell cycle arrest in human SGC-7901 cells assessed as accumulation at G0/G1 phase at 2 times IC50 incubated for 48 hrs by PI/RNase staining based flow cytometry (reference value: 42 %); assay type: functional
SGC-7901 [16] = test: Induction of cell cycle arrest in human SGC-7901 cells assessed as accumulation at S phase at 2 times IC50 incubated for 6 hrs by PI/RNase staining based flow cytometry (reference value: 46 %); assay type: functional
SGC-7901 [17] = test: Induction of cell cycle arrest in human SGC-7901 cells assessed as accumulation at S phase at 2 times IC50 incubated for 12 hrs by PI/RNase staining based flow cytometry (reference value: 46 %); assay type: functional
SGC-7901 [18] = test: Induction of cell cycle arrest in human SGC-7901 cells assessed as accumulation at S phase at 2 times IC50 incubated for 24 hrs by PI/RNase staining based flow cytometry (reference value: 46 %); assay type: functional
SGC-7901 [19] = test: Induction of cell cycle arrest in human SGC-7901 cells assessed as accumulation at S phase at 2 times IC50 incubated for 48 hrs by PI/RNase staining based flow cytometry (reference value: 46 %); assay type: functional
SGC-7901 [20] = test: Induction of cell cycle arrest in human SGC-7901 cells assessed as accumulation at S phase at 2 times IC50 incubated for 72 hrs by PI/RNase staining based flow cytometry (reference value: 46 %); assay type: functional
SGC-7901 [21] = test: Induction of cell cycle arrest in human SGC-7901 cells assessed as accumulation at G2/M phase at 2 times IC50 incubated for 6 hrs by PI/RNase staining based flow cytometry (reference value: 10 %); assay type: functional
SGC-7901 [22] = test: Induction of cell cycle arrest in human SGC-7901 cells assessed as accumulation at G2/M phase at 2 times IC50 incubated for 12 hrs by PI/RNase staining based flow cytometry (reference value: 10 %); assay type: functional
SGC-7901 [23] = test: Induction of cell cycle arrest in human SGC-7901 cells assessed as accumulation at G2/M phase at 2 times IC50 incubated for 24 hrs by PI/RNase staining based flow cytometry (reference value: 10 %); assay type: functional
SGC-7901 [24] = test: Induction of cell cycle arrest in human SGC-7901 cells assessed as accumulation at G2/M phase at 2 times IC50 incubated for 48 hrs by PI/RNase staining based flow cytometry (reference value: 10 %); assay type: functional
SGC-7901 [25] = test: Induction of cell cycle arrest in human SGC-7901 cells assessed as accumulation at G2/M phase at 2 times IC50 incubated for 72 hrs by PI/RNase staining based flow cytometry (reference value: 10 %); assay type: functional
4T1 [26] = test: Cytotoxicity against mouse 4T1 cells assessed as cell growth inhibition incubated for 72 hrs by MTT assay; assay type: functional, cell-based; conditions: 4T1, 72 h
4T1 [27] = test: Antitumor activity against mouse 4T1 cells allografted in Balb/c mouse assessed as tumor growth inhibition at 5 mg/kg, iv administered every other day measured for 12 days relative to control; assay type: functional; conditions: 4T1, 288 h, time 12 day, read-out: TGI
[28] = Toxicity in Balb/c mouse allografted with mouse 4T1 cells assessed as decrease in body weight at 20 mg/kg, iv administered every other day measured for 12 days; assay type: organism-based; conditions: in vivo, 288 h, time 12 day
4T1 [29] = test: Antitumor activity against mouse 4T1 cells allografted in Balb/c mouse assessed as decrease in tumor volume at 20 mg/kg, iv administered every other day measured for 12 days; assay type: functional, organism-based; conditions: time 12.0 day
4T1 [30] = test: Antitumor activity against mouse 4T1 cells allografted in Balb/c mouse assessed as tumor weight at 5 mg/kg, iv administered every other day measured after 12 days (reference value: 448 mg); assay type: functional; conditions: time 12 day
4T1 [31] = test: Antitumor activity against mouse 4T1 cells allografted in Balb/c mouse assessed as tumor weight at 10 mg/kg, iv administered every other day measured after 12 days (reference value: 448 mg); assay type: functional; conditions: time 12 day
4T1 [32] = test: Antitumor activity against mouse 4T1 cells allografted in Balb/c mouse assessed as tumor weight at 20 mg/kg, iv administered every other day measured after 12 days (reference value: 448 mg); assay type: functional; conditions: time 12 day
4T1 [33] = test: Antitumor activity against mouse 4T1 cells allografted in Balb/c mouse assessed as tumor growth inhibition at 10 mg/kg, iv administered every other day measured for 12 days relative to control; assay type: functional; conditions: 4T1, 288 h, time 12 day, read-out: TGI
4T1 [34] = test: Antitumor activity against mouse 4T1 cells allografted in Balb/c mouse assessed as tumor growth inhibition at 20 mg/kg, iv administered every other day measured for 12 days relative to control; assay type: functional; conditions: 4T1, 288 h, time 12 day, read-out: TGI

In the case of `COc1cc(-c2nc3scc(-c4cc(Cl)cc(Cl)c4)n3n2)cc(OC)c1OC`, the IC50 (SGC-7901 [1]) is reported as 210 nM, the IC50 (MCF7) is reported as 2130 nM and the IC50 (HT-1080) is reported as 1180 nM. For the same compound, the IC50 at 72 h [2] was 13200 nM, the “Ratio IC50” value [3] was 62.62 and the inhibition (Tubulin (Homo sapiens) [4]) was “Dose-Dependent Effect”. For the same compound, the IC50 (Tubulin) was 6870 nM, the Activity (Tubulin (Homo sapiens) [5]) was 37.9% and the Activity (Tubulin (Homo sapiens) [6]) was “Active”. It also gave an Activity (SGC-7901 [7]) of 2%, an Activity (SGC-7901 [8]) of 17% and an Activity (SGC-7901 [9]) of 21%. It also gave an Activity (SGC-7901 [10]) of 69%, an Activity (SGC-7901 [11]) of 93% and an Activity (SGC-7901 [12]) of 36%. For the same compound, the Activity (SGC-7901 [13]) was 21%, the Activity (SGC-7901 [14]) was 16% and the Activity (SGC-7901 [15]) was 4%. It also gave an Activity (SGC-7901 [16]) of 49%, an Activity (SGC-7901 [17]) of 31% and an Activity (SGC-7901 [18]) of 21%. It also gave an Activity (SGC-7901 [19]) of 8%, an Activity (SGC-7901 [20]) of 3% and an Activity (SGC-7901 [21]) of 13%. It also gave an Activity (SGC-7901 [22]) of 31%, an Activity (SGC-7901 [23]) of 42% and an Activity (SGC-7901 [24]) of 19%. It also gave an Activity (SGC-7901 [25]) of 4%, an IC50 (4T1 [26]) of 341 nM and an inhibition in vivo at 5 mg/kg (4T1 [27]) of 49.2%. For the same compound, the Activity [28] was “Non-Toxic”, the Activity (4T1 [29]) was “Active” and the Activity (4T1 [30]) was 227.5 mg. For the same compound, the Activity (4T1 [31]) was 187.74 mg, the Activity (4T1 [32]) was 71.76 mg and the inhibition in vivo at 10 mg/kg (4T1 [33]) was 58.1%. The inhibition in vivo at 20 mg/kg (4T1 [34]) was 84%.
